Results on 23 molecules are retold here after ChEMBL document CHEMBL4219271, “Synthesis and anti-proliferative activity of allogibberic acid derivatives containing 1,2,3-triazole pharmacophore” (Bioorg Med Chem Lett, 2018).

The structures appear in SMILES notation. pIC50: −log10 of the molar value.

Common to all, as to type: functional, cell-based
One test deals with A549. Briefly: Cytotoxicity against human A549 cells assessed as decrease in cell viability after 4 days by MTT assay. The settings on record: A549, 96 h.
A further test deals with MCF7. Briefly: Cytotoxicity against human MCF7 cells assessed as decrease in cell viability after 4 days by MTT assay. The settings on record: MCF7, 96 h.
Another test relates to SMMC-7721. Briefly: Cytotoxicity against human SMMC7721 cells assessed as decrease in cell viability after 4 days by MTT assay. As to conditions: SMMC-7721, 96 h.
The subject of a further test is HL-60. Briefly: Cytotoxicity against human HL60 cells assessed as decrease in cell viability after 4 days by MTT assay. The settings on record: HL-60, 96 h.
In a further test the test system is SW480. Briefly: Cytotoxicity against human SW480 cells assessed as decrease in cell viability after 4 days by MTT assay. The settings on record: SW480, 96 h.

`C=C1C[C@]23C[C@@]1(O)CC[C@@H]2c1cccc(C)c1[C@@H]3Cn1cc(-c2ccc(C(F)(F)F)cc2)nn1`: the pIC50 in the test with A549, with MCF7, in the test on SMMC-7721, with HL-60 and in the test with SW480 was under 4.70 throughout.
In the case of `C=C1C[C@]23C[C@@]1(O)CC[C@H]2c1cc(Br)c(O)c(C)c1[C@@H]3Cn1cc(-c2ccccc2)nn1`, the negative-log IC50 (pIC50) with A549, with MCF7, in the test on SMMC-7721, with HL-60 and with SW480 was under 4.70 in each case.
With `C=C1C[C@]23C[C@@]1(O)CC[C@H]2c1ccc(O)c(C)c1[C@@H]3Cn1cc(-c2ccccc2)nn1`, the pIC50 with A549, in the test on MCF7, in the test on SMMC-7721, in the test on HL-60 and in the test on SW480 was under 4.70 in each case.
As to `Cc1c(O)ccc2c1[C@H](Cn1cc(-c3ccccn3)nn1)[C@@]13CC(=O)[C@@](C)(CC[C@@H]21)C3`, the pIC50 in the test with A549, in the test with MCF7, in the test with SMMC-7721, with HL-60 and in the test with SW480 was under 4.70 each time.
As for `C=C1C[C@]23C[C@@]1(O)CC[C@H]2c1cc(Br)c(O)c(C)c1[C@@H]3Cn1cc(-c2ccccn2)nn1`, the pIC50 in the test with A549, in the test with MCF7, in the test with SMMC-7721, in the test with HL-60 and in the test on SW480 was under 4.70 throughout.
For the molecule `C=C1C[C@]23C[C@@]1(O)CC[C@H]2c1ccc(O)c(C)c1[C@@H]3Cn1cc(-c2ccc(OC)cc2)nn1`, the negative-log IC50 (pIC50) in the test with A549, with MCF7, in the test with SMMC-7721, in the test on HL-60 and in the test with SW480 was under 4.70 each time.
Take `C=C1C[C@]23C[C@@]1(O)CC[C@H]2c1ccc(O)c(C)c1[C@@H]3Cn1cc(-c2ccc(Cl)cc2)nn1`: the pIC50 in the test on A549, with MCF7, in the test on SMMC-7721, in the test with HL-60 and with SW480 was under 4.70 each time.
Turning to `Cc1ccc(-c2cn(C[C@H]3c4c(ccc(O)c4C)[C@@H]4CC[C@@]5(C)C[C@]43CC5=O)nn2)cc1`, the pIC50 in the test on A549, in the test with MCF7, with SMMC-7721, in the test on HL-60 and with SW480 was under 4.70 each time.
`C=C1C[C@]23C[C@@]1(O)CC[C@H]2c1ccc(O)c(C)c1[C@@H]3Cn1cc(-c2ccc(C)cc2)nn1`: the pIC50 with A549, in the test with MCF7, in the test on SMMC-7721, in the test with HL-60 and in the test with SW480 was under 4.70 in each case.
Regarding `C=C1C[C@]23C[C@@]1(O)CC[C@@H]2c1cccc(C)c1[C@@H]3Cn1cc(-c2ccc(F)cc2)nn1`, the pIC50 with A549, in the test with MCF7, in the test on SMMC-7721, with HL-60 and in the test with SW480 was under 4.70 throughout.
With `C=C1C[C@]23C[C@@]1(O)CC[C@H]2c1ccc(OS(=O)(=O)c2ccc(C)cc2)c(C)c1[C@@H]3Cn1cc(-c2ccccc2)nn1`, the pIC50 in the test with A549, in the test on MCF7, with SMMC-7721, in the test with HL-60 and in the test on SW480 was under 4.70 in each case.
`Cc1ccc(S(=O)(=O)Oc2ccc3c(c2C)[C@H](Cn2cc(-c4ccccc4)nn2)[C@@]24CC(=O)[C@@](C)(CC[C@@H]32)C4)cc1`: the pIC50 in the test on A549, in the test on MCF7, in the test with SMMC-7721, with HL-60 and with SW480 was under 4.70 each time.
Regarding `Cc1ccc(S(=O)(=O)Oc2ccc3c(c2C)[C@H](Cn2cc(-c4ccc(Br)cc4)nn2)[C@@]24CC(=O)[C@@](C)(CC[C@@H]32)C4)cc1`, the negative-log IC50 (pIC50) in the test on A549, in the test on MCF7, in the test on SMMC-7721, in the test on HL-60 and with SW480 was under 4.70 in each case.
As to `C=C1C[C@]23C[C@@]1(O)CC[C@H]2c1cc(Br)c(O)c(C)c1[C@@H]3Cn1cc(-c2ccc(F)cc2)nn1`, the pIC50 with A549 is 4.75; in the test on MCF7, 4.72; in the test with SMMC-7721, under 4.70; with HL-60 it was 5.18; in the test with SW480 it was under 4.70.
Take `C=C1C[C@]23C[C@@]1(O)CC[C@H]2c1ccc(O)c(C)c1[C@@H]3Cn1cc(-c2ccc(C(F)(F)F)cc2)nn1`: the pIC50 with A549 is 4.98; with MCF7, 4.91; with SMMC-7721, under 4.70; in the test on HL-60, 5.05; in the test on SW480 it was under 4.70.
For `CC(=O)O[C@H]1C(=O)[C@@]2(C)[C@H]([C@H](OC(=O)c3ccccc3)[C@]3(O)C[C@H](OC(=O)[C@H](O)[C@@H](NC(=O)c4ccccc4)c4ccccc4)C(C)=C1C3(C)C)[C@]1(OC(C)=O)CO[C@@H]1C[C@@H]2O` [PACLITAXEL], the negative-log IC50 (pIC50) with A549, in the test with MCF7, with SMMC-7721, with HL-60 and in the test with SW480 was over 8.10 throughout.
With `C=C1C[C@]23C[C@@]1(O)CC[C@H]2c1ccc(OS(=O)(=O)c2ccc(C)cc2)c(C)c1[C@@H]3Cn1cc(-c2ccc(F)cc2)nn1`, the pIC50 in the test with A549, in the test with MCF7, in the test on SMMC-7721, with HL-60 and in the test with SW480 was under 4.70 in each case.
`Cc1c(O)ccc2c1[C@H](Cn1cc(-c3ccc(Cl)cc3)nn1)[C@@]13CC(=O)[C@@](C)(CC[C@@H]21)C3`: the pIC50 in the test with A549, in the test with MCF7, in the test with SMMC-7721, in the test on HL-60 and in the test on SW480 was under 4.70 each time.
Regarding `Cc1ccc(S(=O)(=O)Oc2ccc3c(c2C)[C@H](Cn2cc(-c4ccccn4)nn2)[C@@]24CC(=O)[C@@](C)(CC[C@@H]32)C4)cc1`, the pIC50 with A549, with MCF7, in the test on SMMC-7721, in the test with HL-60 and in the test with SW480 was under 4.70 throughout.
Consider `C=C1C[C@]23C[C@@]1(O)CC[C@H]2c1ccc(OS(=O)(=O)c2ccc(C)cc2)c(C)c1[C@@H]3Cn1cc(-c2ccc(Cl)cc2)nn1`, for which the pIC50 in the test on A549, in the test on MCF7, with SMMC-7721, in the test on HL-60 and with SW480 was under 4.70 throughout.
Take `C=C1C[C@]23C[C@@]1(O)CC[C@H]2c1ccc(OS(=O)(=O)c2ccc(C)cc2)c(C)c1[C@@H]3Cn1cc(-c2ccc(C)cc2)nn1`: the pIC50 in the test with A549, in the test with MCF7, in the test with SMMC-7721, in the test on HL-60 and with SW480 was under 4.70 in each case.
Take `Cc1c(O)ccc2c1[C@H](Cn1cc(-c3ccccc3)nn1)[C@@]13CC(=O)[C@@](C)(CC[C@@H]21)C3`: the pIC50 with A549, in the test on MCF7, with SMMC-7721, with HL-60 and with SW480 was under 4.70 each time.
`C=C1C[C@]23C[C@@]1(O)CC[C@H]2c1ccc(OS(=O)(=O)c2ccc(C)cc2)c(C)c1[C@@H]3Cn1cc(-c2ccccn2)nn1`: the pIC50 in the test with A549, in the test on MCF7, in the test with SMMC-7721, with HL-60 and in the test on SW480 was under 4.70 in each case.
